Results on 52 compounds are retold here after PubChem BioAssay AID1996.

As a reminder, the solubility (kinetic) is solubility judged after dilution from a stock solution rather than from solid.

Converted amounts (≈) assume the structure as drawn.

The conditions of this data set: buffer; pH 7.4; 200.0 µM.
Turning to `COP(=O)(OC)c1nc(-c2ccc(C)cc2)oc1N1CCCCC1`, the kinetic solubility was above 52.6 µg/mL. In the case of `CN(C)C(C)(C)C#CC(O)(c1ccccc1)c1ccccc1`, the kinetic solubility is above 44 µg/mL. For `CCNc1nc(NC(C)CC)nc(ON=C(C)C)n1` (configuration not stated) the value was above 40 µg/mL.

As to `CCOc1ccccc1/C=C\c1nc(O)c([N+](=O)[O-])c(=O)[nH]1`, the solubility (kinetic) was above 45.5 µg/mL. In turn, `O=C(Cn1cc([N+](=O)[O-])cn1)NC1CCCCCC1` registered a kinetic solubility above 39.9 µg/mL. In turn, `O=C1CN(c2nc3nonc3nc2N2CCCCC2)CCN1` showed a kinetic solubility of 45.2 µg/mL (≈ 149 µM). For `O=C(N/C=C\n1cnc2cc(C(F)(F)F)ccc21)c1ccc([N+](=O)[O-])cc1` the value was 2.8 µg/mL (≈ 7.44 µM); for `O=C(/C=C/c1ccc(Cl)cc1)OCC(=O)c1ccc[nH]1`, 2.2 µg/mL (≈ 7.59 µM); for `COc1ccccc1OCC(=O)NCCCN1CCOCC1`, 36.1 µg/mL (≈ 117 µM). In turn, `Cc1cnc(C(=O)N2CCN(S(=O)(=O)c3ccc(F)c(F)c3F)CC2)cn1` registered a kinetic solubility of 55.8 µg/mL (≈ 139 µM). Take `Cc1ccc2[nH]c(CNC(=O)c3ccc(F)cc3)cc2c1`: the kinetic solubility was found to be 4.7 µg/mL (≈ 16.6 µM). For `COCCNc1nnc(Cc2ccccc2)c(=O)[nH]1` the value was above 39 µg/mL; for `O=C1NC(=O)N(c2ccccc2)C1=O`, above 28.5 µg/mL. With `CC(=O)c1c(C)[nH]c(C(=O)Nc2cccc(C#N)c2)c1C`, the kinetic solubility came to 10.8 µg/mL (≈ 38.4 µM). For `CN1CCC(=C(c2ccccc2)c2ccc(Br)cc2)CC1.Cl` the value was 53.1 µg/mL; for `CCC(=O)N(Cc1cc(=O)[nH]c2ccccc12)c1ccc(C)cc1C`, 43.9 µg/mL (≈ 131 µM). For `NC(=O)c1cc([N+](=O)[O-])ccc1N1CCN(Cc2ccccc2)CC1` the value was 23 µg/mL (≈ 67.6 µM); for `COP(=O)(c1ccc(N(C)C)cc1)C(O)c1ccccc1` (configuration not stated), above 45.8 µg/mL; for `CCOc1ccc(N2C=Nc3ccc(OCC)cc3C2)cc1`, 11.6 µg/mL (≈ 39.1 µM). For `O=C(/C=C/c1ccccc1Cl)NCCCn1ccnc1` the value was 38.9 µg/mL (≈ 134 µM); for `Cc1ccc(NC(=S)NC(=O)C2CCCCC2)c(Br)c1`, 1.7 µg/mL (≈ 4.78 µM); for `CCCCCn1c(=O)c(C(=O)Nc2ccccc2N)c(O)c2ccccc21`, below 0.3 µg/mL. In the case of `Cc1ccc(-c2nc(C(=O)O)cs2)cc1`, the solubility (kinetic) was determined as 29.5 µg/mL (≈ 135 µM). As for `CC(=O)N1CCN(CC(=O)Nc2ccccc2C(=O)Nc2ccccc2)CC1`, the figure is above 57.1 µg/mL; as for `COc1ccccc1OCCn1c(SCC(N)=O)nc2ccccc21`, 45.4 µg/mL (≈ 127 µM); as for `CCc1ccc(CNC(=O)C(=O)NCC2CCCO2)cc1` (configuration not stated), 17.6 µg/mL (≈ 60.6 µM). `CCOc1ccccc1Nc1nnc(SCC(=O)NC2CC2)s1` displayed a solubility (kinetic) above 52.6 µg/mL. As for `O=[N+]([O-])c1ccccc1OCc1nc(-c2cccs2)no1`, the kinetic solubility worked out at 0.9 µg/mL (≈ 2.97 µM).

In turn, `CC(C)CCN1CCN(Cc2cccn2-c2cccnc2)CC1CCO` (configuration not stated) registered a kinetic solubility above 53.5 µg/mL.

`O=C(O)c1cccc(N=C2NC(=O)C(CO)(CO)S2)c1` showed a solubility (kinetic) above 44.4 µg/mL.

Compound `Cc1ccc(C(=O)OCC(=O)N2CCCCCC2)cc1S(=O)(=O)N1CCOCC1` yielded a solubility (kinetic) above 63.7 µg/mL. As for `Cc1oc(-c2cc(F)cc(F)c2)nc1CN1CCSCC1`, the figure is 26.3 µg/mL (≈ 84.7 µM); as for `N/C(CC(=O)Nc1ccc(F)c(Cl)c1)=N\OC(=O)c1cccs1`, 2.4 µg/mL (≈ 6.75 µM).

For the compound `COC(=O)c1scc(C)c1NC(=O)c1ccccc1F`, the kinetic solubility was above 44 µg/mL. As for `CCN(Cc1ccccc1)C(=O)COC(=O)c1cc(S(=O)(=O)Nc2ccccc2OC)ccc1O`, the figure is 6 µg/mL (≈ 12 µM); as for `CC(=O)Nc1ccc(N/C=C2/CCCC2=O)cc1`, above 36.6 µg/mL; as for `Cc1ccc(-c2ccc(C(=O)NCCCNC(=O)c3cnccn3)o2)cc1Cl`, 6.3 µg/mL (≈ 15.8 µM). `O=C(CCNC(=O)c1ccco1)Nc1ccc(OC(F)(F)F)cc1`: the solubility (kinetic) stood at 19.7 µg/mL (≈ 57.6 µM).

On to `CN1CCCC(OC(=O)/C(C#N)=C/c2ccccc2)C1.Cl` (configuration not stated), for which the solubility (kinetic) is above 46 µg/mL. For `Cn1c(-c2cccc([N+](=O)[O-])c2)[n+](C)c2ccccc21.[Cl-]` the value was above 45.6 µg/mL. The compound `CC(C)c1c(O)nc(SCC(=O)N2CCCCC2)[nH]c1=O` had a kinetic solubility above 46.7 µg/mL. For `Cn1cccc1C(=O)NCC1CCCCC1` the value was 28 µg/mL (≈ 127 µM); for `CSc1nsc(NC(=O)OCc2ccc(Cl)cc2)n1`, 8.4 µg/mL (≈ 26.6 µM). For `Oc1ccc2ccccc2c1CN1CCCC1` the value was 32 µg/mL (≈ 141 µM). As for `Cc1ccc(C(=O)OCC(=O)N2CC(C)OC(C)C2)cc1` (configuration not stated), the solubility (kinetic) is above 43.7 µg/mL. As for `N#Cc1ccc(OC(=O)c2cnccn2)cc1`, the figure is 31.7 µg/mL (≈ 141 µM). Consider `Clc1cnc(Nc2cccnc2)c(Cl)c1`, for which the solubility (kinetic) is 33.8 µg/mL (≈ 141 µM). Compound `CCOC(=O)N1CCN(C(=S)Nc2ccccc2C(C)C)CC1` returned a solubility (kinetic) above 50.3 µg/mL.

As for `CC(=O)Nc1cccc(Oc2nc(-c3ccccn3)nc3ccccc23)c1`, the kinetic solubility amounted to 0.8 µg/mL (≈ 2.24 µM). For `O=C(NCCCCc1ccccc1)c1cc([N+](=O)[O-])cc([N+](=O)[O-])c1` the value was 9.9 µg/mL (≈ 28.8 µM).

In the case of `CC1Nc2ccc(C(=O)NC3CCCCC3)cc2NC1=O` (configuration not stated), the solubility (kinetic) worked out at 19.2 µg/mL (≈ 66.8 µM). Against the preceding compound, the solubility kinetic is about 1.9-fold higher. Take `CCOC(=O)CCNCc1ccc(F)cc1.Cl`: the kinetic solubility is above 39.3 µg/mL.
